From PubChem BioAssay AID1963841 (Molecular Pharmacology Branch, DTP, NCI, 2024)

Test system: 439559-082-T-J2-PDC spheroid viability
Test: Anticancer human tumor 439559-082-T-J2-PDC patient-derived colon adenocarcinoma cell line growth inhibition [POLQ]
Settings: spheroids with HUVEC and MSC; for IC50: curve of first compound; for viability, T/C: stronger effect = lower value
In short: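 Growth inhibition in 3D: complex spheroids (tumor PDC, HUVEC, MSC) treated with POLQ inhibitor combinations; where Cmax unknown, highest tested concentration 10 microM, except SN-38 at 1 microM.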

[1] = second compound 0.0316 µM, first compound 0.0316 µM
[2] = second compound 0.0316 µM, first compound 0.1 µM
[3] = second compound 0.1 µM, first compound 0.0316 µM
[4] = second compound 0.1 µM, first compound 0.1 µM
[5] = second compound 0.316 µM, first compound 0.0316 µM
[6] = second compound 0.316 µM, first compound 0.1 µM
[7] = second compound 1 µM, first compound 0.0316 µM
[8] = second compound 1 µM, first compound 0.1 µM
[9] = second compound 3.16 µM, first compound 0.0316 µM
[10] = second compound 3.16 µM, first compound 0.1 µM
[11] = second compound 10 µM, first compound 0.0316 µM
[12] = second compound 10 µM, first compound 0.1 µM
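Note: spheroids exposed to compounds for seven days before readout.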
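Throughout, for viability, T/C: 100% = DMSO vehicle control viability.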

**Q.** How did the IC50 (second compound 0.0316 µM) turn out when `CC[C@@]1(O)C(=O)OCc2c1cc1n(c2=O)Cc2cc3c(CN(C)C)c(O)ccc3nc2-1` + Nc1ccc(C#CCN(C(=O)Cc2ncc(C(F)(F)F)cc2C(F)(F)F)c2ccc(F)cc2)nn1 was run?
**A.** The IC50 was over 0.1 µM.

**Q.** And the IC50 (second compound 0.1 µM)?
**A.** Its IC50 is over 0.1 µM.

**Q.** What about the IC50 (second compound 0.316 µM) of the same compound?
**A.** The IC50 was over 0.1 µM.

**Q.** What about the IC50 (second compound 1 µM) of the same compound?
**A.** Its IC50 is over 0.1 µM.

**Q.** And the IC50 (second compound 3.16 µM)?
**A.** Its IC50 is over 0.1 µM.

**Q.** What about the IC50 (second compound 10 µM) of the same compound?
**A.** The IC50 was over 0.1 µM.

**Q.** And the viability, T/C (second compound 0.0316 µM, first compound 0.000316 µM)?
**A.** Its viability, T/C is 104%.

**Q.** And the viability, T/C (second compound 0.0316 µM, first compound 0.001 µM)?
**A.** The viability, T/C was 97%.

**Q.** What about the viability, T/C (second compound 0.0316 µM, first compound 0.00316 µM) of the same compound?
**A.** Its viability, T/C is 81.4%.

**Q.** And the viability, T/C (second compound 0.0316 µM, first compound 0.01 µM)?
**A.** Its viability, T/C is 108%.

**Q.** What about the viability, T/C [1] of the same compound?
**A.** Its viability, T/C is 85.8%.

**Q.** What about the viability, T/C [2] of the same compound?
**A.** The viability, T/C was 82.8%.

**Q.** What about the viability, T/C (second compound 0.1 µM, first compound 0.000316 µM) of the same compound?
**A.** Its viability, T/C is 107%.

**Q.** What about the viability, T/C (second compound 0.1 µM, first compound 0.001 µM) of the same compound?
**A.** Its viability, T/C is 103%.

**Q.** What about the viability, T/C (second compound 0.1 µM, first compound 0.00316 µM) of the same compound?
**A.** Its viability, T/C is 96.3%.

**Q.** And the viability, T/C (second compound 0.1 µM, first compound 0.01 µM)?
**A.** Its viability, T/C is 105%.

**Q.** What about the viability, T/C [3] of the same compound?
**A.** Its viability, T/C is 85.9%.

**Q.** And the viability, T/C [4]?
**A.** Its viability, T/C is 76.3%.

**Q.** And the viability, T/C (second compound 0.316 µM, first compound 0.000316 µM)?
**A.** The viability, T/C was 108%.

**Q.** And the viability, T/C (second compound 0.316 µM, first compound 0.001 µM)?
**A.** The viability, T/C was 110%.

**Q.** What about the viability, T/C (second compound 0.316 µM, first compound 0.00316 µM) of the same compound?
**A.** Its viability, T/C is 101%.

**Q.** What about the viability, T/C (second compound 0.316 µM, first compound 0.01 µM) of the same compound?
**A.** The viability, T/C was 104%.

**Q.** What about the viability, T/C [5] of the same compound?
**A.** The viability, T/C was 93.6%.

**Q.** What about the viability, T/C [6] of the same compound?
**A.** Its viability, T/C is 79%.

**Q.** And the viability, T/C (second compound 1 µM, first compound 0.000316 µM)?
**A.** The viability, T/C was 86.7%.

**Q.** What about the viability, T/C (second compound 1 µM, first compound 0.001 µM) of the same compound?
**A.** Its viability, T/C is 98.6%.

**Q.** What about the viability, T/C (second compound 1 µM, first compound 0.00316 µM) of the same compound?
**A.** Its viability, T/C is 83.8%.

**Q.** What about the viability, T/C (second compound 1 µM, first compound 0.01 µM) of the same compound?
**A.** Its viability, T/C is 97.9%.

**Q.** What about the viability, T/C [7] of the same compound?
**A.** The viability, T/C was 88.7%.

**Q.** What about the viability, T/C [8] of the same compound?
**A.** The viability, T/C was 75.4%.

**Q.** What about the viability, T/C (second compound 3.16 µM, first compound 0.000316 µM) of the same compound?
**A.** Its viability, T/C is 114%.

**Q.** And the viability, T/C (second compound 3.16 µM, first compound 0.001 µM)?
**A.** Its viability, T/C is 113%.

**Q.** And the viability, T/C (second compound 3.16 µM, first compound 0.00316 µM)?
**A.** Its viability, T/C is 92%.

**Q.** And the viability, T/C (second compound 3.16 µM, first compound 0.01 µM)?
**A.** The viability, T/C was 88.4%.

**Q.** What about the viability, T/C [9] of the same compound?
**A.** Its viability, T/C is 88%.

**Q.** What about the viability, T/C [10] of the same compound?
**A.** The viability, T/C was 89.9%.

**Q.** What about the viability, T/C (second compound 10 µM, first compound 0.000316 µM) of the same compound?
**A.** Its viability, T/C is 91.8%.

**Q.** And the viability, T/C (second compound 10 µM, first compound 0.001 µM)?
**A.** Its viability, T/C is 94.8%.

**Q.** And the viability, T/C (second compound 10 µM, first compound 0.00316 µM)?
**A.** Its viability, T/C is 87.9%.

**Q.** And the viability, T/C (second compound 10 µM, first compound 0.01 µM)?
**A.** The viability, T/C was 90.2%.

**Q.** What about the viability, T/C [11] of the same compound?
**A.** Its viability, T/C is 86%.

**Q.** What about the viability, T/C [12] of the same compound?
**A.** Its viability, T/C is 75.9%.

**Q.** `O=c1[nH]cc(F)c(=O)[nH]1` + Cc1cccc(N(C)C(=O)C2C(O)CCN2c2nc(C)cc(C(F)(F)F)c2C#N)c1 was tested. Which IC50 (second compound 0.0316 µM) did it give?
**A.** The IC50 was over 10 µM.

**Q.** And the IC50 (second compound 0.1 µM)?
**A.** Its IC50 is over 10 µM.

**Q.** What about the IC50 (second compound 0.316 µM) of the same compound?
**A.** The IC50 was over 10 µM.

**Q.** And the IC50 (second compound 1 µM)?
**A.** Its IC50 is over 10 µM.

**Q.** What about the IC50 (second compound 3.16 µM) of the same compound?
**A.** Its IC50 is over 10 µM.

**Q.** What about the IC50 (second compound 10 µM) of the same compound?
**A.** Its IC50 is over 10 µM.

**Q.** What about the viability, T/C [1] of the same compound?
**A.** The viability, T/C was 102%.

**Q.** And the viability, T/C [2]?
**A.** Its viability, T/C is 93.3%.

**Q.** And the viability, T/C (second compound 0.0316 µM, first compound 0.316 µM)?
**A.** Its viability, T/C is 82.2%.

**Q.** What about the viability, T/C (second compound 0.0316 µM, first compound 1 µM) of the same compound?
**A.** The viability, T/C was 78.3%.

**Q.** What about the viability, T/C (second compound 0.0316 µM, first compound 3.16 µM) of the same compound?
**A.** Its viability, T/C is 71.9%.

**Q.** What about the viability, T/C (second compound 0.0316 µM, first compound 10 µM) of the same compound?
**A.** The viability, T/C was 66.7%.

**Q.** What about the viability, T/C [3] of the same compound?
**A.** The viability, T/C was 106%.

**Q.** What about the viability, T/C [4] of the same compound?
**A.** The viability, T/C was 91.4%.

**Q.** What about the viability, T/C (second compound 0.1 µM, first compound 0.316 µM) of the same compound?
**A.** The viability, T/C was 80.8%.

**Q.** What about the viability, T/C (second compound 0.1 µM, first compound 1 µM) of the same compound?
**A.** The viability, T/C was 76.6%.

**Q.** What about the viability, T/C (second compound 0.1 µM, first compound 3.16 µM) of the same compound?
**A.** The viability, T/C was 73.4%.

**Q.** What about the viability, T/C (second compound 0.1 µM, first compound 10 µM) of the same compound?
**A.** Its viability, T/C is 70%.

**Q.** And the viability, T/C [5]?
**A.** The viability, T/C was 104%.

**Q.** What about the viability, T/C [6] of the same compound?
**A.** Its viability, T/C is 97.4%.

**Q.** What about the viability, T/C (second compound 0.316 µM, first compound 0.316 µM) of the same compound?
**A.** The viability, T/C was 84.6%.

**Q.** What about the viability, T/C (second compound 0.316 µM, first compound 1 µM) of the same compound?
**A.** The viability, T/C was 75.1%.

**Q.** What about the viability, T/C (second compound 0.316 µM, first compound 3.16 µM) of the same compound?
**A.** Its viability, T/C is 73.1%.

**Q.** What about the viability, T/C (second compound 0.316 µM, first compound 10 µM) of the same compound?
**A.** Its viability, T/C is 68.8%.

**Q.** What about the viability, T/C [7] of the same compound?
**A.** Its viability, T/C is 97.5%.

**Q.** What about the viability, T/C [8] of the same compound?
**A.** The viability, T/C was 94.4%.

**Q.** And the viability, T/C (second compound 1 µM, first compound 0.316 µM)?
**A.** Its viability, T/C is 84.3%.

**Q.** And the viability, T/C (second compound 1 µM, first compound 1 µM)?
**A.** The viability, T/C was 73.7%.

**Q.** What about the viability, T/C (second compound 1 µM, first compound 3.16 µM) of the same compound?
**A.** The viability, T/C was 76.7%.

**Q.** What about the viability, T/C (second compound 1 µM, first compound 10 µM) of the same compound?
**A.** Its viability, T/C is 71%.

**Q.** And the viability, T/C [9]?
**A.** Its viability, T/C is 93.1%.

**Q.** What about the viability, T/C [10] of the same compound?
**A.** The viability, T/C was 94%.

**Q.** And the viability, T/C (second compound 3.16 µM, first compound 0.316 µM)?
**A.** Its viability, T/C is 84.5%.

**Q.** What about the viability, T/C (second compound 3.16 µM, first compound 1 µM) of the same compound?
**A.** Its viability, T/C is 72%.

**Q.** What about the viability, T/C (second compound 3.16 µM, first compound 3.16 µM) of the same compound?
**A.** Its viability, T/C is 71%.

**Q.** And the viability, T/C (second compound 3.16 µM, first compound 10 µM)?
**A.** Its viability, T/C is 68%.

**Q.** What about the viability, T/C [11] of the same compound?
**A.** Its viability, T/C is 91.8%.

**Q.** What about the viability, T/C [12] of the same compound?
**A.** Its viability, T/C is 83.3%.

**Q.** What about the viability, T/C (second compound 10 µM, first compound 0.316 µM) of the same compound?
**A.** The viability, T/C was 78.7%.

**Q.** What about the viability, T/C (second compound 10 µM, first compound 1 µM) of the same compound?
**A.** Its viability, T/C is 70.8%.

**Q.** And the viability, T/C (second compound 10 µM, first compound 3.16 µM)?
**A.** Its viability, T/C is 71%.

**Q.** And the viability, T/C (second compound 10 µM, first compound 10 µM)?
**A.** Its viability, T/C is 64%.
